Data on eight compounds can be found in ChEMBL document CHEMBL1146741, “Cycloalkyl[b][1,4]benzodiazepinoindoles are agonists at the human 5-HT2C receptor” (Bioorg Med Chem Lett, 2004).

Assay [1] concerns the target T1, 5-hydroxytryptamine receptor 2A (Homo sapiens, UniProt P28223). Description: Agonistic binding affinity against human 5-hydroxytryptamine 2A receptor in CHO cells using [125I]-DOI.
The target in assay [2] is T2, 5-hydroxytryptamine receptor 2C (Homo sapiens) (UniProt P28335).
T2 sequence (whole entry): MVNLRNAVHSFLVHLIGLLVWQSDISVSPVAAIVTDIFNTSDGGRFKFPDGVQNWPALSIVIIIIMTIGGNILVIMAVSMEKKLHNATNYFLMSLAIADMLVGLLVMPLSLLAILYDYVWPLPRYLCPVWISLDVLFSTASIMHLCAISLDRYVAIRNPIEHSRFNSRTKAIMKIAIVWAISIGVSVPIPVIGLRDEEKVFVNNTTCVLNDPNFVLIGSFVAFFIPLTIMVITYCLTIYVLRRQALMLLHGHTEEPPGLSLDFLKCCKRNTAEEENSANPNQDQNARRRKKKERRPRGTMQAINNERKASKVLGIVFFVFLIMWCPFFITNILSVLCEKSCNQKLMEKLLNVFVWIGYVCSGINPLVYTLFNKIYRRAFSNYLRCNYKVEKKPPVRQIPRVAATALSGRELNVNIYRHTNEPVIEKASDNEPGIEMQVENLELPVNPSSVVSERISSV
Description: Agonistic binding efficacy against human 5-hydroxytryptamine 2C receptor in CHO cells using [125I]- DOI radioligand. The assay is classed as cell-based.

Assay [3] concerns the target T1, 5-hydroxytryptamine receptor 2A. Description: Agonistic binding affinity against human 5-hydroxytryptamine 2A receptor in CHO cells using [125I]DOI radioligand.
The target in assay [4] is T2, 5-hydroxytryptamine receptor 2C (Homo sapiens). The assay can be described thus: Agonistic binding affinity against human 5-hydroxytryptamine 2C receptor in CHO cells using [125I]- DOI radioligand, expressed as Emax. It is filed as cell-based.
Assay [5] concerns the target D(4) dopamine receptor (Homo sapiens) (UniProt P21917). Description: Percent binding affinity against dopamine receptor D4. The note with it: concentration not given here.
The target of assay [6] is T1, 5-hydroxytryptamine receptor 2A. The assay can be described thus: Effective concentration against human 5-hydroxytryptamine 2A receptor in CHO cells by stimulation of [3H]inositol monophosphate production.
In assay [7] the target is D(3) dopamine receptor (Homo sapiens) (UniProt P35462). Description: Percent binding affinity against dopamine D3 receptor. Particulars: concentration not given here.
Assay [8] has as its target T3, 5-hydroxytryptamine receptor 1A (Homo sapiens) (UniProt P08908).
T3 sequence (whole entry): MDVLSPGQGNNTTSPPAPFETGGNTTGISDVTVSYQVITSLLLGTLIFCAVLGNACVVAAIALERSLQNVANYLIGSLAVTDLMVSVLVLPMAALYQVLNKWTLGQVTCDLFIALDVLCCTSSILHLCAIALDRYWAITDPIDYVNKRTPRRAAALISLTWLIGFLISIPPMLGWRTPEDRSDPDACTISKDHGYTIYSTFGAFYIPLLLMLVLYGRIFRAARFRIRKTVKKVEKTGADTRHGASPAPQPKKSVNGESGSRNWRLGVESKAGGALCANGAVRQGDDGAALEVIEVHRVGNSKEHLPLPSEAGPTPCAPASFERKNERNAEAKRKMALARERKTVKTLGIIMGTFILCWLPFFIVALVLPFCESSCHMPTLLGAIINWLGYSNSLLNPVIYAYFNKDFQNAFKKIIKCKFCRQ
Description: Percent binding affinity against 5-hydroxytryptamine 1A receptor. The note with it: concentration not given here.

In assay [9] the target is T4, 5-hydroxytryptamine receptor 2C (Homo sapiens, UniProt P28335).
T4 sequence (P28335 whole entry): T2 sequence (whole entry)
The assay can be described thus: Agonistic binding affinity against human 5-hydroxytryptamine 2C receptor in CHO cells using [125I]- DOI. It is filed as cell-based.

As a reminder, the Ki is a dissociation constant, usually derived from enzyme kinetics or from competition with a known ligand. High values mean a looser hold on the target, low ones a stronger hold on the target. For orientation: Emax means the greatest response seen or fitted, relative to the assay's reference. The term inhibition denotes the change of the read-out against control, counted positive when it falls. Read a low inhibition as a weak effect. By EC50 is commonly meant the concentration at which the effect is half-maximal. Low readings indicate a more potent agent, high ones a less potent agent.

T1 sequence (P28223 whole entry): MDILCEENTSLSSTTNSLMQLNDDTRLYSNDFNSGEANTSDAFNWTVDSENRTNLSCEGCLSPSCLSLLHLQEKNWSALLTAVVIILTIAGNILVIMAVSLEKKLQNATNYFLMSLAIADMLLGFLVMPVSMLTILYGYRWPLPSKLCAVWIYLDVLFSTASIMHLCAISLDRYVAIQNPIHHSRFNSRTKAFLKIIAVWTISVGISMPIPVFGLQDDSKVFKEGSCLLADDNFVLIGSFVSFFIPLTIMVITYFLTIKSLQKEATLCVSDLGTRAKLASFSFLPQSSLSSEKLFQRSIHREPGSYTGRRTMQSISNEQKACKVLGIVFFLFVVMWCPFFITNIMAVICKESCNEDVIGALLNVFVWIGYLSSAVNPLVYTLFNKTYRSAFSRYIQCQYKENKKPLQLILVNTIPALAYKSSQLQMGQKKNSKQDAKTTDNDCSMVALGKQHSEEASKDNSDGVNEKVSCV
Chain of D(4) dopamine receptor (Homo sapiens) (P21917 whole entry, looked up): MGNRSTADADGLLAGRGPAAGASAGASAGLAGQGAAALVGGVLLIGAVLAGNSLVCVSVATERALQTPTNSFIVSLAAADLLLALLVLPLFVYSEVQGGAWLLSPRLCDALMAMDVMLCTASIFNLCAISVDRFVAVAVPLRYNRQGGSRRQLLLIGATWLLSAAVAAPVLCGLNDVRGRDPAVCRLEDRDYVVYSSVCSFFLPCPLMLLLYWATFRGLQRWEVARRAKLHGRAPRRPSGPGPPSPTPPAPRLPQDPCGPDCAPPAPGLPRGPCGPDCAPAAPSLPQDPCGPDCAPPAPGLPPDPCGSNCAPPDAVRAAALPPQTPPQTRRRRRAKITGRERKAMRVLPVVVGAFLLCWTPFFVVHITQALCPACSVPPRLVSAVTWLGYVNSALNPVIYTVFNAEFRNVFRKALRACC
Chain of D(3) dopamine receptor (Homo sapiens) (P35462 whole entry, looked up): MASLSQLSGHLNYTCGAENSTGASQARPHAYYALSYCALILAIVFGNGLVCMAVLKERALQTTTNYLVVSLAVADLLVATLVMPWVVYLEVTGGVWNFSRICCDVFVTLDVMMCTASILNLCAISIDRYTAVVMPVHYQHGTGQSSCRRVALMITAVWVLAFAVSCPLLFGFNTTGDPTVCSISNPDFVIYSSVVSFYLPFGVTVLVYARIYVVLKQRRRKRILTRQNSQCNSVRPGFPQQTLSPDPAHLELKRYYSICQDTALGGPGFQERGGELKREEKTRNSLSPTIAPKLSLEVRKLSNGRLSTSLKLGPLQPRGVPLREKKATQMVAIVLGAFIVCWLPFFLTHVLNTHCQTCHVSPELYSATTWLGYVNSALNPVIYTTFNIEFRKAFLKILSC

The compound `c1cc2c3c(c1)c1c(n3CCNC2)CCCCC1` registered a Ki in [1] of 0.199 µM. The compound further yielded an Efficacy in [2] of 73%.

In assay [3], `c1cc2c3c(c1)c1c(n3CCNC2)CCC1` registered an inhibition constant Ki of 0.922 µM. Moreover, the maximal effect (Emax) in assay [4] turned out to be 90%.

`Cc1cc2c3c(c1)c1c(n3CCNC2)CCCC1` returned a Ki in assay [1] of 1.23 µM. This counts as single-digit micromolar.

On to `c1cc2c3c(c1)c1c(n3CCNC2)CCCCCC1`, for which the values for the inhibition in assay [5], in assay [7] and in [8] were 47%, 37% and 4%, respectively. This compound yielded an EC50 in assay [6] of 64 µM. Further, in [1], the Ki is 0.036 µM. The same compound came in with a maximal response (Emax) in assay [4] of 102%. Further, in assay [2], the Efficacy is 102%.

The compound `Cc1cc2c3c(c1)c1c(n3CCNC2)CCC1` had a Ki in assay [1] of 2.53 µM.

Take `Fc1ccc2c3c1c1c(n3CCNC2)CCCC1`: in assay [9], the affinity corresponds to a Ki of 0.111 µM.

Turning to `C[C@@H]1Cn2c3c(c4cccc(c42)CN1)CCCC3`, the Ki in assay [1] was found to be 1.56 µM.

In the case of `CC1(C)Cc2c(c3cccc4c3n2CCNC4)C(C)(C)C1`, the values for the Ki in assay [9] and in assay [1] were 0.079 µM and 0.152 µM, respectively.
